Experimental data as given in US20230399341A1, “7-PHENYL SUBSTITUTED 2-AMINOQUINAZOLINE INHIBITORS OF HPK1” (MERCK SHARP & DOHME LLC, priority 2020, published 2023).

Target: T1, Human HPK1, catalytic domain (Homo sapiens, UniProt Q92918)
T1 sequence (Q92918 1-346): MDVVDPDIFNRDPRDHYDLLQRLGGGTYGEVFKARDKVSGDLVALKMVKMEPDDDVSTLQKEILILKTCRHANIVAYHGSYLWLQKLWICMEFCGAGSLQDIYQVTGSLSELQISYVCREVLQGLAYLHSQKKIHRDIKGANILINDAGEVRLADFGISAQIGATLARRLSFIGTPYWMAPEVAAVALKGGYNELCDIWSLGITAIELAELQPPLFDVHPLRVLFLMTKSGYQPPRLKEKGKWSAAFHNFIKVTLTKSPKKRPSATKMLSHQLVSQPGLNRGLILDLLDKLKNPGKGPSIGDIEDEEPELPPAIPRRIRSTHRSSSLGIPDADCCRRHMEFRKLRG
Assay: HPK1-SLP76 TR-FRET Assay
Type: biochemical
Settings: 75 pM HPK1, ATP 10 uM, SLP76 10 nM, 30 min pre-incubation, 60 min reaction

| IC50 | SMILES |
| --- | --- |
| 0.142 nM | Cc1c(-c2cc3nc(Nc4ccc(CCC#N)cc4)ncc3c(N)c2F)cnc2c1NCCO2 [Compound 2-116, 3-(4-{[5-amino-6-fluoro-7-(8-methyl-2,3-dihydro-1H-pyrido[2,3-b][1,4]oxazin-7-yl)quinazolin-2-yl]amino}phenyl)propane-nitrile] |
| 0.0406 nM | Cc1c(-c2cc3nc(Nc4ccc5c(c4)CN(C)CCC5)ncc3c(N)c2F)cnc2c1NCCO2 [Compound 2-117, 6-fluoro-7-(8-methyl-2,3-dihydro-1H-pyrido[2,3-b][1,4]oxazin-7-yl)-N~2~- (2-methyl-2,3,4,5-tetrahydro-1H-2-benzazepin-8-yl)quinazoline-2,5-diamine] |
| 0.0607 nM | Cc1c(-c2cc3nc(Nc4ccc5c(c4)COCC5)ncc3c(N)c2F)cnc2c1NCCO2 [Compound 2-118, N~2~-(3,4-dihydro-1H-2-benzopyran-7-yl)-6-fluoro-7-(8-methyl-2,3-dihydro-1H-pyrido[2,3-b][1,4]oxazin-7-yl)quinazoline-2,5-diamine] |
| 0.038 nM | Cc1c(-c2cc3nc(Nc4ccc5c(c4)CCN(C)CC5)ncc3c(N)c2F)cnc2c1NCCO2 [Compound 2-119, 6-fluoro-7-(8-methyl-2,3-dihydro-1H-pyrido[2,3-b][1,4]oxazin-7-yl)-N~2~- (3-methyl-2,3,4,5-tetrahydro-1H-3-benzazepin-7-yl)quinazoline-2,5-diamine] |
| 0.0066 nM | Cc1c(-c2cc3nc(Nc4ccc5c(c4)CNCCC5)ncc3c(N)c2F)cnc2c1NCCO2 [Compound 2-120, 6-fluoro-7-(8-methyl-2,3-dihydro-1H-pyrido[2,3-b][1,4]oxazin-7-yl)-N~2~- (2,3,4,5-tetrahydro-1H-2-benzazepin-8-yl)quinazoline-2,5-diamine] |
| 0.0248 nM | Cc1c(-c2cc3nc(Nc4ccc5c(c4)C4CCC5N4C)ncc3c(N)c2F)cnc2c1NCCO2 (stereo not shown) [Compound 2-121, 6-fluoro-7-(8-methyl-2,3-dihydro-1H-pyrido[2,3-b][1,4]oxazin-7-yl)-N~2~- (9-methyl-1,2,3,4-tetrahydro-1,4-epiminonaphthalen-6-yl)quinazoline-2,5-diamine] |
| 0.22 nM | Cc1ccncc1-c1cc2nc(Nc3ccc4c(c3)CN(C)CC4)ncc2c(N)c1F [Compound 2-122, 6-fluoro-7-(4-methylpyridin-3-yl)-N~2~- (2-methyl-1,2,3,4-tetrahydroisoquinolin-7-yl)quinazoline-2,5-diamine] |
| 0.037 nM | CS(=O)(=O)Cc1ccc(Nc2ncc3c(N)c(F)c(-c4cnc5c(c4Cl)NCCO5)cc3n2)cc1 [Compound 2-123, 7-(8-chloro-2,3-dihydro-1H-pyrido[2,3-b][1,4]oxazin-7-yl)-6-fluoro-N2-(4-((methylsulfonyl)methyl)phenyl)quinazoline-2,5-diamine] |
| 0.0474 nM | CN1CCc2ccc(Nc3ncc4c(N)c(F)c(-c5cnc6c(c5Cl)NCCO6)cc4n3)cc2C1 [Compound 2-124, 7-(8-chloro-2,3-dihydro-1H-pyrido[2,3-b][1,4]oxazin-7-yl)-6-fluoro-N~2~-(2-methyl-1,2,3,4-tetrahydroisoquinolin-7-yl)quinazoline-2,5-diamine] |
| 0.103 nM | Cc1c(-c2cc3nc(Nc4ccc5c(c4)CN(C)CC5)ncc3c(N)c2F)cnc2cc[nH]c12 [Compound 2-130, 6-fluoro-7-(7-methyl-1H-pyrrolo[3,2-b]pyridin-6-yl)-N~2~-(2-methyl-1,2,3,4-tetrahydroisoquinolin-7-yl)quinazoline-2,5-diamine] |
| 2.78 nM | Cc1c(-c2c(F)c(N)c3cnc(Nc4ccc(CS(=O)(=O)C5CC5)cc4)nc3c2Cl)cnc2c1NCCO2 [Compound 2-132, 8-chloro-N2-(4-((cyclopropylsulfonyl)methyl)phenyl)-6-fluoro-7-(8-methyl-2,3-dihydro-1H-pyrido[2,3-b][1,4]oxazin-7-yl)quinazoline-2,5-diamine] |
| 0.405 nM | Cc1c(-c2c(F)c(N)c3cnc(Nc4ccc(CS(=O)(=O)C(C)C)cc4)nc3c2Cl)cnc2c1NCCO2 [Compound 2-133, (+ and −)-8-chloro-6-fluoro-7-(8-methyl-2,3-dihydro-1H-pyrido[2,3-b][1,4]oxazin-7-yl)-N~2~- (4-{[(propan-2-yl)sulfonyl]methyl}phenyl) quinazoline-2,5-diamine] |
| 57.7 nM | CCS(=O)(=O)Cc1ccc(Nc2ncc3c(N)c(F)c(-c4cnc5c(c4C)NCCO5)c(Cl)c3n2)cc1 [Compound 2-134] |
| 72.5 nM | Cc1c(-c2c(F)c(N)c3cnc(Nc4ccc(CS(C)(=O)=O)cc4F)nc3c2Cl)cnc2c1NCCO2 [Compound 2-135, 8-chloro-6-fluoro-N2-(2-fluoro-4-((methylsulfonyl)methyl)phenyl)-7-(8-methyl-2,3-dihydro-1H-pyrido[2,3-b][1,4]oxazin-7-yl)quinazoline-2,5-diamine] |
| 0.101 nM | Cc1c(-c2cc3nc(Nc4ccc(CS(=O)(=O)C5CC5)cc4)ncc3c(N)c2F)cnc2c1NCCO2 [Compound 2-136] |
| 100 nM | Cc1c(-c2c(F)c(N)c3cnc(Nc4ccc(CS(=O)(=O)C5CC5)cc4)nc3c2Cl)cnc2c1NCCO2 [Compound 2-137, 8-chloro-N2-(4-((cyclopropylsulfonyl)methyl)phenyl)-6-fluoro-7-(8-methyl-2,3-dihydro-1H-pyrido[2,3-b][1,4]oxazin-7-yl)quinazoline-2,5-diamine] |
| 0.068 nM | Cc1c(-c2cc3nc(Nc4ccc5c(c4)CCS(=O)(=O)C5)ncc3c(N)c2F)cnc2c1NCCO2 [Compound 2-138, 6-{[5-amino-6-fluoro-7-(8-methyl-2,3-dihydro-1H-pyrido[2,3-b][1,4]oxazin-7-yl)quinazolin-2-yl]amino}-3,4-dihydro-2-benzothiopyran-2,2(1H)-dione] |
| 0.0422 nM | CN1CCc2ccc(Nc3ncc4c(N)c(F)c(-c5cncc6[nH]ccc56)cc4n3)cc2C1 [Compound 2-139, 6-fluoro-N~2~-(2-methyl-1,2,3,4-tetrahydroisoquinolin-7-yl)-7-(1H-pyrrolo[2,3-c]pyridin-4-yl)quinazoline-2,5-diamine] |
| 0.121 nM | CCS(=O)(=O)Cc1ccc(Nc2ncc3c(N)c(F)c(-c4cnc5c(c4C)NCCO5)c(Cl)c3n2)cc1 [Compound 2-140, 8-chloro-N~2~-{4-[(ethylsulfonyl)methyl]phenyl}-6-fluoro-7-(8-methyl-2,3-dihydro-1H-pyrido[2,3-b][1,4]oxazin-7-yl)quinazoline-2,5-diamine] |
| 1.23 nM | Cc1c(-c2cc3nc(Nc4cc5c(cn4)CCN(C)C5)ncc3c(N)c2F)cnc2c1NCCO2 [Compound 2-142, 6-fluoro-7-(8-methyl-2,3-dihydro-1H-pyrido[2,3-b][1,4]oxazin-7-yl)-N~2~- (6-methyl-5,6,7,8-tetrahydro-2,6-naphthyridin-3-yl)quinazoline-2,5-diamine] |
| 0.0888 nM | CCS(=O)(=O)Cc1ccc(Nc2ncc3c(N)c(F)c(-c4cnc5c(c4C)NCCO5)cc3n2)c(F)c1 [Compound 2-143, N~2~-{4-[(ethylsulfonyl)methyl]-2-fluorophenyl}-6-fluoro-7-(8-methyl-2,3-dihydro-1H-pyrido[2,3-b][1,4]oxazin-7-yl)quinazoline-2,5-diamine] |
| 0.232 nM | CCS(=O)(=O)Cc1ccc(Nc2ncc3c(N)c(F)c(-c4cnc5c(c4C)NCC(C)(C)O5)cc3n2)c(F)c1 [Compound 2-144, N~2~-{4-[(ethylsulfonyl)methyl]-2-fluorophenyl}-6-fluoro-7-(3,3,8-trimethyl-2,3-dihydro-1H-pyrido[2,3-b][1,4]oxazin-7-yl)quinazoline-2,5-diamine] |
| 0.0831 nM | Cc1c(-c2cc3nc(Nc4ccc(C5(S(C)(=O)=O)CC5)cc4)ncc3c(N)c2F)cnc2c1NCCO2 [Compound 2-148, 6-fluoro-N~2~-{4-[1-(methanesulfonyl)cyclo-propyl]phenyl}-7-(8-methyl-2,3-dihydro-1H-pyrido[2,3-b][1,4]oxazin-7-yl)quinazoline-2,5-diamine] |
| 0.194 nM | Cc1c(-c2cc3nc(Nc4ccc(CS(=O)(=O)CC(F)(F)F)cc4)ncc3c(N)c2F)cnc2c1NCCO2 [Compound 2-149, 6-fluoro-7-(8-methyl-2,3-dihydro-1H-pyrido[2,3-b][1,4]oxazin-7-yl)-N~2~- {4-[(2,2,2-trifluoroethanesulfonyl)methyl]phenyl}quinazoline-2,5-diamine] |
| 0.0614 nM | Cc1c(-c2cc3nc(Nc4ccc5c(c4)CN(C)CC5(C)C)ncc3c(N)c2F)cnc2c1NCCO2 [Compound 2-150, 6-fluoro-7-(8-methyl-2,3-dihydro-1H-pyrido[2,3-b][1,4]oxazin-7-yl)-N~2~- (2,4,4-trimethyl-1,2,3,4-tetrahydroisoquinolin-7-yl)quinazoline-2,5-diamine] |
| 0.267 nM | CN1Cc2cc(Nc3ncc4c(N)c(F)c(-c5cnc6c(c5)NCCO6)cc4n3)ccc2C2(CC2)C1 [Compound 2-151, 7-(2,3-dihydro-1H-pyrido[2,3-b][1,4]oxazin-7-yl)-6-fluoro-N~2~-(2′-methyl-2′,3′-dihydro-1′H-spiro[cyclopropane-1,4′-isoquinolin]-7′-yl)quinazoline-2,5-diamine] |
| 0.0714 nM | CN1Cc2cc(Nc3ncc4c(N)c(F)c(-c5cnc6c(c5Cl)NCCO6)cc4n3)ccc2C2(CC2)C1 [Compound 2-152, 7-(8-chloro-2,3-dihydro-1H-pyrido[2,3-b][1,4]oxazin-7-yl)-6-fluoro-N~2~-(2′-methyl-2′,3′-dihydro-1′H-spiro[cyclopropane-1,4′-isoquinolin]-7′-yl)quinazoline-2,5-diamine] |
| 0.0471 nM | Cc1c(N)cncc1-c1cc2nc(Nc3ccc4c(c3)CN(C)CC43CC3)ncc2c(N)c1F [Compound 2-153, 7-(5-amino-4-methylpyridin-3-yl)-6-fluoro-N~2~-(2′-methyl-2′,3′-dihydro-1′H-spiro[cyclopropane-1,4′-isoquinolin]-7′-yl)quinazoline-2,5-diamine] |
